US20100022559A1, “BISOXIMES AS FUNGICIDES” (BAYER CROPSCIENCE AG, priority 2006, published 2010)

experiment: logP determination by HPLC on a reversed-phase column (C 18), EEC Directive 79/831 Annex V.A8; format: physicochemical; settings: [a] acidic range, pH 2.3, 0.1% aqueous phosphoric acid and acetonitrile
Procedure: The stated logP values were determined in accordance with EEC Directive 79/831 Annex V.A8 by HPLC (high performance liquid chromatography) on a reversed-phase column (C 18). Temperature: 43° C.

logP	SMILES
0.27^[a]	C/C(=N\OCCCON)c1cccc(C)n1 [XII-10]

same assay, conditions: [b] LC-MS, acidic range, pH 2.7, 0.1% aqueous formic acid and acetonitrile

logP	SMILES
0.27^[b]	C/C(=N\OCCCON)c1cccc(C)n1 [XII-10]

same assay, conditions: [c] LC-MS, neutral range, pH 7.8, 0.001 molar aqueous ammonium bicarbonate solution and acetonitrile

logP	SMILES
1.72^[c]	C/C(=N\OCCCON)c1cccc(C)n1 [XII-10]

same assay, conditions: method marked [a] in Table 1

logP	SMILES
7.36^[a]	CCc1cc(-c2ccccc2)cc(C(C)=NOCC(C)CON=C(C)c2cc(-c3ccccc3)cc(CC)n2)n1 (stereo not drawn) [compound 692]

same assay, conditions: method marked [b] in Table 1

logP	SMILES
5.09^[b]	CC(=NOCC(CON=C(C)c1nc(C)ccc1C)C(C)(C)C)c1nc(C)ccc1C (single isomer, unassigned) [compound 757]
4.86^[b] v(isomer B)	CC(=NOCCCCCCON=C(C)c1nc(C)c(C)s1)c1cccc(C)n1 (single isomer, unassigned) [compound 539]
5.75^[b]	CC(=NOCC(C)CON=C(C)c1cccc(C(=O)c2ccccc2)n1)c1cccc(C)n1 (stereo not drawn) [Compound 690]
4.56^[b]	CCCC(=NOCC1(CON=C(CCC)c2cccc(C)n2)CC(C)=NO1)c1cccc(C)n1 (stereo not drawn) [compound 615]
2.96^[b]	CC(=NOCC(CON=C(C)c1cc(C)cc(C)n1)c1ccccc1)c1cc(C)cc(C)n1 (stereo not drawn) [Compound 554]
4.57^[b]	CC(=NOCC(C)(C)CON=C(c1cccc(C)n1)C(C)C)c1cccc(C)n1 [compound 547]
3.22^[b]	CCCC(CON=C(C)c1cc(C)cc(C)n1)CON=C(C)c1cc(C)cc(C)n1 (stereo not drawn) [Compound 555]
3.11^[b]	CCCC1=NOC(CON=C(C)c2ccc(C)c(C)n2)(CON=C(C)c2ccc(C)c(C)n2)C1 (stereo not drawn) [compound 629]
3.12^[b]	CC(=NOCC(CON=C(C)c1cc(C)cc(C)n1)C(C)C)c1cc(C)cc(C)n1 (stereo not drawn) [Compound 682]
2.34^[b]	CC(=NOc1ncnc(ON=C(C)c2cccc(C)n2)c1C)c1cccc(C)n1 [compound 728]
6.22^[b]	CON=C(c1ccccc1)c1cccc(C(C)=NOCC(C)CON=C(C)c2cccc(C)n2)n1 (mixture of isomers) [Compound 693]
6.09^[b]	CC(=NOCC1(CON=C(C)c2cccc(C)n2)CCCCC1)c1cccc(C)n1 [Compound 561]
4.10^[b]	C=C(CON=C(C)c1nc(OC)cc(OC)n1)CON=C(C)c1nc(OC)cc(OC)n1 [compound 565]
2.51^[b]	Cc1nc(/C(N)=N/OC/C=C/CO/N=C(\N)c2nc(C)c3c(n2)CCCC3)nc2c1CCCC2 [compound 721]
2.71^[b]	Cc1cccc(C(N)=NOCC(C)CON=C(N)c2cccc(C)n2)n1 (stereo not drawn) [compound 689]

same assay, conditions: method marked [c] in Table 1

logP	SMILES
6.38^[c]	CC(=NOCC(CON=C(C)c1nc(C)ccc1C)C(C)(C)C)c1nc(C)ccc1C (single isomer, unassigned) [compound 757]
6.33^[c]	CC(=NOCC(CON=C(C)c1cc(C)cc(C)n1)c1ccccc1)c1cc(C)cc(C)n1 (stereo not drawn) [Compound 554]
7.15^[c]	CCCC(CON=C(C)c1cc(C)cc(C)n1)CON=C(C)c1cc(C)cc(C)n1 (stereo not drawn) [Compound 555]
7.09^[c]	CC(=NOCC(CON=C(C)c1cc(C)cc(C)n1)C(C)C)c1cc(C)cc(C)n1 (stereo not drawn) [Compound 682]
3.45^[c]	CC(=NOc1ncnc(ON=C(C)c2cccc(C)n2)c1C)c1cccc(C)n1 [compound 728]
7.15^[c]	CC(=NOCC1(CON=C(C)c2cccc(C)n2)CCCCC1)c1cccc(C)n1 [Compound 561]
4.10^[c]	C=C(CON=C(C)c1nc(OC)cc(OC)n1)CON=C(C)c1nc(OC)cc(OC)n1 [compound 565]

same assay, conditions: method marker [a] (footnote not shown); isomer A / isomer B / isomer mixture as noted in the cell

logP	SMILES
6.26^[a]	CCCC(=NOCCCCON=C(CCC)c1cccc(C)n1)c1cccc(C)n1 [compound 227]
1.50^[a]	CC(=NOCC(C)CON=C(C)c1ccc(C)nc1)c1ccc(C)nc1 (mixture of isomers) [compound 233]
5.83^[a]	CCCC(=NOCCCON=C(CCC)c1cccc(C)n1)c1cccc(C)n1 [Compound 91]
4.69^[a]	CC(=NOCCCON=C(C)c1csc(Cl)n1)c1csc(Cl)n1 (mixture of isomers) [compound 232]
1.54^a]	CC(=NOCCCON=C(C)c1cncc(C)c1)c1cncc(C)c1 [compound 163]
1.22^[a]	CC(=NOCC(C)CON=C(C)c1cccnc1C)c1cccnc1C (mixture of isomers) [compound 234]

same assay, conditions: method marker [b]; isomer A / isomer B / isomer mixture as noted in the cell

logP	SMILES
2.45^[b]	N/C(=N\OCCCCO/N=C(\N)c1ncc(F)cc1F)c1ncc(F)cc1F [compound 38]
3.10^[b]	C=C(CON=C(C)c1cccc(C)n1)CON=C(C)c1ccc(C)c(C)n1 [Compound 204]
5.03^[b]	CC(=NOCCCON=C(C)c1nc(C)c(C)s1)c1nc(C)c(C)s1 [compound 51]
5.37^[b]	CC(=NOCCCCCCCON=C(C)c1cccc(C)n1)c1cccc(C)n1 [Compound 217]
2.39^[b]	CC(=NOCON=C(C)c1cccc(C)n1)c1cccc(C)n1 [compound 7]
4.38^[b]	CCC(=NOCC(C)CON=C(CC)c1nc(C)c(C)c(C)n1)c1nc(C)c(C)c(C)n1 (stereo not drawn) [Compound 254]
4.10^[b]	CC(=NOC(C)CC(C)ON=C(C)c1cccc(C)n1)c1cccc(C)n1 (stereo not drawn) [Compound 248]
1.92^[b]	C=C(CON=C(C)c1cccc(C)n1)CON=C(N)c1nc(COC)c(C)c(COC)n1 [compound 183]
7.36^[b]	CC(=NOCCCCCCCCCCON=C(C)c1cccc(C)n1)c1cccc(C)n1 [compound 74]
3,16^[b]	CC(=NOCCCCON=C(C)c1cccc(C)n1)c1cccc(C)n1 [compound 6]
2.02^[b]	C/C(=N\OCCOCOCCO/N=C(\C)c1cccc(C)n1)c1cccc(C)n1 [Compound 216]
6.51^[b]	C=C(CON=C(C)c1ccc2ccccc2n1)CON=C(C)c1ccc2ccccc2n1 [compound 63]
2.20^[b]	CC(=NOCC(=O)CON=C(C)c1cccc(C)n1)c1cccc(C)n1 [compound 71]
6.89^[b]	C=C(CON=C(C)c1cccc(CCC)n1)CON=C(C)c1cccc(CCC)n1 [Compound 62]
1.75^[b]	COCc1nc(/C(N)=N/OCCCCO/N=C(\N)c2nc(COC)c(C)c(COC)n2)nc(COC)c1C [compound 37]
2.04^[b]	COc1ccc(C)nc1C(C)=NOCC(C)CON=C(C)c1nc(C)ccc1OC (stereo not drawn) [Compound 251]
2.45^[b]	CC(=NOCC1(CON=C(C)c2cccc(C)n2)COC1)c1cccc(C)n1 [compound 19]
2.67^[b]	Cc1cc(C)nc(C(N)=NOCCCCON=C(N)c2cc(C)cc(C)n2)c1 [compound 123]

same assay, conditions: value marked [a]

logP	SMILES
2.54^[a]	CC(=NOCC(C)(C)CON=C(C)c1cc(C)cc(C)n1)c1cc(C)cc(C)n1 [Compound 276]
6.13^[a]	C=CCOC(C)(CON=C(C)c1cccc(C)n1)C(C)ON=C(C)c1cccc(C)n1 (stereo not drawn) [compound 872]
7.36^[b][a]	CC(=NOCC(C)(C)CON=C(C)c1cccc(Cc2ccccc2)n1)c1cccc(Cc2ccccc2)n1 [Compound 798]
2.04^[a]	CC(=NOC(=O)NCCCCNC(=O)ON=C(C)c1ccc(C)c(C)n1)c1ccc(C)c(C)n1 [compound 851]
4.20^[a]	C=C(CON=C(C#N)c1cccc(C)n1)CON=C(C#N)c1ccc(C)c(C)n1 [compound 828]
3.84^[a]	C=C(CON=C(C#N)c1cccc(C)n1)CON=C(C#N)c1cccc(C)n1 [Compound 784]

same assay, conditions: value marked [b]

logP	SMILES
3.89^[b]	CC(=NOCC(C)(C)CON=C(C)c1ncccc1C)c1cccc(C)n1 [compound 490]
2.98^[b] (isomer )A	CCC(=NOCCCCON=C(C)c1cccc(C)n1)c1ncccc1C (single isomer, unassigned) [compound 529]
2.33^[b]	C=C(CON=C(C)c1cc(C)c(C)nn1)CON=C(C)c1cc(C)c(C)nn1 [compound 284]
6.13^[b]	C=CCOC(C)(CON=C(C)c1cccc(C)n1)C(C)ON=C(C)c1cccc(C)n1 (stereo not drawn) [compound 872]
4.48^[b]	CCCC(CON=C(C)c1ccc(C)c(C)n1)CON=C(C)c1ccc(C)c(C)n1 (stereo not drawn) [Compound 316]
3.51^[b]	CC(=NOCCCCCCON=C(C)c1cc(C)cc(C)n1)c1cccc(C)n1 [Compound 460]
1.68^[b] (isomer A)	COCc1nc(C(N)=NOC/C=C/CON=C(N)c2nc(COC)c(C)c(COC)n2)nc(COC)c1C (single isomer, unassigned) [compound 768]
7.36^[b]	CC(=NOCC(C)(C)CON=C(C)c1cccc(Cc2ccccc2)n1)c1cccc(Cc2ccccc2)n1 [Compound 798]
5.59^[b]	CC(=NOCC(C)(C)CON=C(C)c1ccccc1Cl)c1cccc(C)n1 [compound 413]
2.76^[b]	CC(=NOCC(C)CON=C(C)c1cc(C)cc(C)n1)c1cccc(C)n1 (stereo not drawn) [Compound 499]
4.10^[b]	CCC(=NOCCCCON=C(C)c1cccc(C)n1)c1cccc(C)n1 [compound 333]
5.54^[b]	CC(=NOCCCCON=C(C)c1cccc(C)n1)c1cccc(Cl)c1 [compound 442]
3.94^[b]	CC(=NOCCCCCCON=C(C)c1cccc(C)n1)c1cc(C)ccn1 [compound 386]
4.07^[b]	C=C(CON=C(CC)c1nc(C)c(C)c(C)n1)CON=C(CC)c1nc(C)c(C)c(C)n1 [compound 516]
1.74^[b] (isomer A)	C=C(CON=C(C)c1ccnc(C)c1)CON=C(C)c1cccc(C)n1 (single isomer, unassigned) [compound 533]
3.89^[b]	CC(=NOCCCCON=C(c1ccccc1)c1ncccc1C)c1cccc(C)n1 [compound 325]
2.37^[b]	C=C(CON=C(C)c1cccc(C)n1)CON=C(C)c1nccc(C)n1 [compound 510]
4.51^[b]	C=C(CON=C(C)c1ccccc1)CON=C(C)c1cccc(C)n1 [compound 408]
4.41^[b]	C/C(=N\OCC(C)(C)CO/N=C(\C)c1cncc(C)n1)c1cccc(C)n1 [compound 492]
4.46^[b]	C=C(CON=C(C)c1cccc(OC)c1)CON=C(C)c1cccc(C)n1 [compound 470]
6.03^[b](isomer B)	CC(=NOCCCCCCON=C(c1cccc(C)n1)C(C)C)c1cccc(C)n1 (single isomer, unassigned) [compound 527]
5.39^[b]	CCC(C)(CON=C(C)c1ccc(C)c(C)n1)CON=C(C)c1ccc(C)c(C)n1 (stereo not drawn) [Compound 793]
1.46^[b]	CC(=NOCC(O)CON=C(C)c1cccc(C)n1)c1cccc(C)n1 (stereo not drawn) [compound 293]
5.48^[b] (isomer B)	CC(=NOCCCCON=C(CC(C)C)c1cccc(C)n1)c1cccc(C)n1 (single isomer, unassigned) [compound 530]
2.5^[b] (isomer B)	CC(=NOCC(C)CON=C(C)c1nc(C)ccc1C)c1nc(C)ccc1C (single isomer, unassigned) [Compound 267]

same assay, conditions: value marked [c]

logP	SMILES
6.96^[c]	C=CCOC(C)(CON=C(C)c1cccc(C)n1)C(C)ON=C(C)c1cccc(C)n1 (stereo not drawn) [compound 872]
7.23^[c]	CCCC(CON=C(C)c1ccc(C)c(C)n1)CON=C(C)c1ccc(C)c(C)n1 (stereo not drawn) [Compound 316]
7.27^[c]	CCC(C)(CON=C(C)c1ccc(C)c(C)n1)CON=C(C)c1ccc(C)c(C)n1 (stereo not drawn) [Compound 793]
